Results as given in the supplement of paper PMC10307832.

Experiments:
Experiment in all cases: relative viability (nuclei count vs DMSO), 5 days (fraction); higher = more cells survive
[1] = compound: Cc1ccc2nc(NCCN)c3ncc(C)n3c2c1 + CS(=O)(=O)CCNCc1ccc(-c2ccc3ncnc(Nc4ccc(OCc5cccc(F)c5)c(Cl)c4)c3c2)o1 [Lapatinib] (partner 2 µM)
Outline: (§1)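 Each reported value is a median over duplicate plates. It expresses relative viability: treated-well nuclei count divided by vehicle-well nuclei count. Lung cancer cell lines in 1536-well plates were dosed by pin tool a day after seeding, alone with one drug or with a fixed anchor-drug dose plus five library-drug doses (not always all listed) in √10 steps, and nuclei were counted after 5 days.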

[2] = compound: O=C(/C=C/c1ccccc1)NC(NC(=S)Nc1cccc2cccnc12)C(Cl)(Cl)Cl [Salubrinal] + CC(=O)c1c(C)c2cnc(Nc3ccc(N4CCNCC4)cn3)nc2n(C2CCCC2)c1=O [Palbociclib] (partner 0.5 µM)
Outline: as §1

[3] = compound: O=C(/C=C/c1ccccc1)NC(NC(=S)Nc1cccc2cccnc12)C(Cl)(Cl)Cl [Salubrinal] + N=C(N)NC(=N)NCCc1ccccc1 [Phenformin] (partner 250 µM)
Outline: as §1

[4] = compound: O=C(/C=C/c1ccccc1)NC(NC(=S)Nc1cccc2cccnc12)C(Cl)(Cl)Cl [Salubrinal] + CCNC(=O)c1noc(-c2cc(C(C)C)c(O)cc2O)c1-c1ccc(CN2CCOCC2)cc1 [Luminespib] (partner 0.01 µM)
Outline: as §1

Cell Line | relative viability ([1]; first compound 0.04 µM) | relative viability ([1]; first compound 0.1265 µM) | relative viability ([1]; first compound 0.4 µM) | relative viability ([1]; first compound 1.265 µM) | relative viability ([1]; first compound 4 µM) | relative viability ([2]; first compound 0.08 µM) | relative viability ([2]; first compound 0.8 µM) | relative viability ([2]; first compound 2.53 µM) | relative viability ([2]; first compound 8 µM) | relative viability ([3]; first compound 0.08 µM) | relative viability ([3]; first compound 0.253 µM) | relative viability ([3]; first compound 0.8 µM) | relative viability ([3]; first compound 2.53 µM) | relative viability ([3]; first compound 8 µM) | relative viability ([2]; first compound 0.253 µM) | relative viability ([4]; first compound 0.08 µM) | relative viability ([4]; first compound 0.253 µM) | relative viability ([4]; first compound 0.8 µM) | relative viability ([4]; first compound 2.53 µM) | relative viability ([4]; first compound 8 µM)
HCC-366 | 1.14 | 0.91 | 1.11 | 1.07 | 0.998 | 0.464 | 0.44 | 0.385 | 0.315 | 0.685 | 0.579 | 0.645 | 0.642 | 0.646 |  |  |  |  |  | 
HCC-827 | 0.21 | 0.207 | 0.191 | 0.195 | 0.209 | 0.49 | 0.514 | 0.475 | 0.48 | 0.408 | 0.521 | 0.356 | 0.392 | 0.341 | 0.441 | 0.694 | 0.411 | 0.425 | 0.739 | 0.551
HOP-62 | 1.13 | 0.845 | 0.688 | 0.81 | 1.02 | 0.359 | 0.53 | 0.457 | 0.481 | 0.85 | 0.491 | 0.799 | 0.702 | 0.53 | 0.399 | 0.936 | 0.676 | 0.968 | 0.882 | 0.861
IA-LM | 1.02 | 0.833 | 0.581 | 1 | 0.7 |  |  |  |  |  |  |  |  |  |  |  |  |  |  | 
LC-2-ad | 0.939 | 0.922 | 0.915 | 0.945 | 0.89 | 0.499 | 0.586 | 0.478 | 0.403 | 0.65 | 0.609 | 0.744 | 0.621 | 0.596 | 0.403 | 1.06 | 1.13 | 1.05 | 0.979 | 0.98
LCLC-97TM1 | 1.06 | 1.42 | 0.78 | 1.33 | 1 | 0.236 | 0.221 | 0.227 | 0.265 | 0.388 | 0.413 | 0.435 | 0.462 | 0.488 | 0.224 | 0.894 | 0.798 | 0.823 | 0.849 | 0.842
LCLC-103H |  |  |  |  |  | 0.469 | 0.469 | 0.453 | 0.467 | 0.388 | 0.282 | 0.318 | 0.38 | 0.308 | 0.491 | 1.11 | 0.82 | 1.02 | 1.04 | 0.916
LK-2 | 0.961 | 0.879 | 0.823 | 0.748 | 0.761 | 0.708 | 0.683 | 0.597 | 0.788 | 0.502 | 0.466 | 0.675 | 0.3 | 0.395 | 0.781 | 0.219 | 0.183 | 0.214 | 0.211 | 0.166
LOU-NH91 | 0.784 | 0.846 | 0.782 | 0.777 | 0.766 | 0.6 | 0.521 | 0.556 | 0.569 | 0.813 | 0.693 | 0.739 | 0.583 | 0.663 | 0.565 | 0.304 | 0.381 | 0.358 | 0.305 | 0.386
